Data taken from US20240352402A1, “ENGINEERED BACTERIA FOR BIOSYNTHESIS OF PEPTIDE-BASED QUORUM SENSING INHIBITORS” (Wisconsin Alumni Research Foundation, priority 2023, published 2024).

Test system: S. aureus agr quorum sensing system (agr specificity groups I, II, III and IV)
Test: Staphylococcus aureus agr reporter (antagonism) assay with pDB59 YFP reporter strains
Assay type: cell-based
Settings: high concentrations, WT supernatant as vehicle control
Experimental: Supernatant samples were lyophilized in a FreeZone Freeze Dryer (Labconco). Fluorescence (EX 500 nm/EM 540 nm) and OD600 were read on a Synergy™ 2 plater reader (BioTek). Data was analyzed using Prism 9 software (GraphPad by Dotmatics).
In both P. megaterium and B. subtilis strains produced in Example 1, AIP production was induced by diluting overnight cultures 1:100 in LB containing 1% xylose. After 8 hours the cultures were centrifuged, and the supernatant was purified with a 0.22 μm filter. The supernatant was then lyophilized and reconstituted in sterile milli-Q water at 10× the original concentration.
Groups I-IV S. aureus strains containing the pDB59 plasmid were used to conduct agr antagonism assays. Assays were conducted as previously described,^1 with the following adjustments: 10×WT P. megaterium or B. subtilis supernatant was used as a vehicle control instead of DMSO and 20 μl of sample/vehicle control and 180 μl of 1:50 overnight S. aureus in brain heart infusion (BHI) growth medium was added to each well for inducible strains P. megaterium (FIG. 2) and B. subtilis (FIG. 3) from Example 1 and constitutive strain B. subtilis (FIG. 5) from Example 2.

## AIP-III D4A
Lyophilized B. subtilis supernatant (10x), n=9, FIG. 3
  inhibition of agr activity in reporter assay: inhibit agr
Lyophilized P. megaterium supernatant (10x), n=3, FIG. 2
  inhibition of agr activity in reporter assay: inhibit agr
